Assays:
[1] = target: T1, SNF-related serine/threonine-protein kinase (Homo sapiens) (UniProt Q9NRH2); settings: at 10 µM
T1 sequence (whole entry): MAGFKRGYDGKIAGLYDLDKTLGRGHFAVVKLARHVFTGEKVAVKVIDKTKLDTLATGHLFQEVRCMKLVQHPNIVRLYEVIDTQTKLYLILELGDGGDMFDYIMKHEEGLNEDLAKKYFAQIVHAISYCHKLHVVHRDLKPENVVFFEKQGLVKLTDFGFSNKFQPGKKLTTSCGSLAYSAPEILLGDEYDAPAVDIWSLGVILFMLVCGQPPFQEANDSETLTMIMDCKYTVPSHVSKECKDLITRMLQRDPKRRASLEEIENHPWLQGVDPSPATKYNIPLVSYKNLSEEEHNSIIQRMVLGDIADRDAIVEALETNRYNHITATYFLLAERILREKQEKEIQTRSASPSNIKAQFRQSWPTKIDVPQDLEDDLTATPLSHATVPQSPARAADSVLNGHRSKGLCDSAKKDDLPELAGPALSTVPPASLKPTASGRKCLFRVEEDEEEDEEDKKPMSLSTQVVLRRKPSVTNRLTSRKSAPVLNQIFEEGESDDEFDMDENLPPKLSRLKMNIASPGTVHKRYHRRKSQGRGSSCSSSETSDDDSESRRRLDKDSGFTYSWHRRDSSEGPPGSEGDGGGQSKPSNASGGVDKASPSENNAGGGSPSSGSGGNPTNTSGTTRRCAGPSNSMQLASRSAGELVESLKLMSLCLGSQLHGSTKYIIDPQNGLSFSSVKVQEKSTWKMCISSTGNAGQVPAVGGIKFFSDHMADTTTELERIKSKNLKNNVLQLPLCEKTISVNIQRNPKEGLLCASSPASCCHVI

[2] = target: Receptor tyrosine-protein kinase erbB-2 (Homo sapiens, UniProt P04626); assay: Selectivity interaction (Radiometric kinase assay (using 10 uM ATP)) EUB0000601a ERBB2
[3] = target: Serine/threonine-protein kinase pim-1 (Homo sapiens, UniProt P11309); assay: Selectivity interaction (Kinase screening (Nanosyn)) EUB0000604a PIM1
Serine/threonine-protein kinase pim-1, sequence (P11309 whole entry, looked up): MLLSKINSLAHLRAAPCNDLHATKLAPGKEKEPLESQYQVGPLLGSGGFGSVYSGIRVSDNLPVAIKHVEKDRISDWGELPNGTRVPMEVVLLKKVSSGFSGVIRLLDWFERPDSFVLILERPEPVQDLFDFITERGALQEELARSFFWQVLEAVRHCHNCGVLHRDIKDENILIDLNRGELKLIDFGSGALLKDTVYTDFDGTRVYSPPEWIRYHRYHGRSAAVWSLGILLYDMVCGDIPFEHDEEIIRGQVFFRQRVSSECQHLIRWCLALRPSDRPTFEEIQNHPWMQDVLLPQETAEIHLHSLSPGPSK

[4] = target: Serine/threonine-protein kinase N1 (Homo sapiens, UniProt Q16512); assay: Selectivity interaction (ActivX KiNativ screen (kinase selectivity in THP-1 cell lysates)) EUB0000639a PKN1; format: subcellular; settings: lysate, at 1 µM
[5] = target: Ribosomal protein S6 kinase alpha-4 (Homo sapiens) (UniProt O75676); settings: at 10 µM
[6] = target: Vascular endothelial growth factor receptor 3 (Homo sapiens, UniProt P35916); assay: Selectivity interaction (KinomeScan (DiscoverX)) EUB0001079a FLT4; settings: at 1 µM
[7] = target: Receptor-interacting serine/threonine-protein kinase 2 (Homo sapiens, UniProt O43353); assay: Selectivity interaction (KinomeScan (DiscoverX)) EUB0001079a RIPK2; settings: at 1 µM
[8] = target: T2, Serine/threonine-protein kinase TAO3 (Homo sapiens) (UniProt Q9H2K8); assay: Selectivity interaction (ProQinase) EUB0000171b TAOK3
T2 sequence (whole entry): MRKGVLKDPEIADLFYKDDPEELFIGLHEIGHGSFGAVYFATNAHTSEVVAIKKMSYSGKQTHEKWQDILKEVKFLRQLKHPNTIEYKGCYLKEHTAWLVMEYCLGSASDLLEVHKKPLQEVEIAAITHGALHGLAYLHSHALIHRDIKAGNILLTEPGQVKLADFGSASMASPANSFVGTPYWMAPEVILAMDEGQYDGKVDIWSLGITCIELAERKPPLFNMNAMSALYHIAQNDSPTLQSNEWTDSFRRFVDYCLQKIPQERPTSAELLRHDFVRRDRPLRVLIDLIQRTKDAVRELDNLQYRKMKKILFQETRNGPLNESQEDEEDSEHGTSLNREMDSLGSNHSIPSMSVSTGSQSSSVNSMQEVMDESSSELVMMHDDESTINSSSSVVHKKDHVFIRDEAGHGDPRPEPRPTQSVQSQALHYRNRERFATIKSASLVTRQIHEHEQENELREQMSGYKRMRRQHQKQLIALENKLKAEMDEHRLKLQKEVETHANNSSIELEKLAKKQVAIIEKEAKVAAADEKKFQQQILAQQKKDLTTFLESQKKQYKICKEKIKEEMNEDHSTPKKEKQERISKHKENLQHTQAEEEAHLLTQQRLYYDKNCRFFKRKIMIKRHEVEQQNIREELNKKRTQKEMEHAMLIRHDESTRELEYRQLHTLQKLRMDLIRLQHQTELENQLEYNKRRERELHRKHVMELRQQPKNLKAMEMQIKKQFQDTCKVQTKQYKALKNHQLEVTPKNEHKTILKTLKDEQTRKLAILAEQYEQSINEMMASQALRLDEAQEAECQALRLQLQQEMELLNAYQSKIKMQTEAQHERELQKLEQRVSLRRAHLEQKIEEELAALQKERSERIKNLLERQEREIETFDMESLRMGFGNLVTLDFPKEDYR

[9] = target: Vascular endothelial growth factor receptor 1 (Homo sapiens) (UniProt P17948); assay: Selectivity interaction (KinomeScan (DiscoverX)) EUB0000045b FLT1
Vascular endothelial growth factor receptor 1 (Homo sapiens), sequence (P17948 whole entry): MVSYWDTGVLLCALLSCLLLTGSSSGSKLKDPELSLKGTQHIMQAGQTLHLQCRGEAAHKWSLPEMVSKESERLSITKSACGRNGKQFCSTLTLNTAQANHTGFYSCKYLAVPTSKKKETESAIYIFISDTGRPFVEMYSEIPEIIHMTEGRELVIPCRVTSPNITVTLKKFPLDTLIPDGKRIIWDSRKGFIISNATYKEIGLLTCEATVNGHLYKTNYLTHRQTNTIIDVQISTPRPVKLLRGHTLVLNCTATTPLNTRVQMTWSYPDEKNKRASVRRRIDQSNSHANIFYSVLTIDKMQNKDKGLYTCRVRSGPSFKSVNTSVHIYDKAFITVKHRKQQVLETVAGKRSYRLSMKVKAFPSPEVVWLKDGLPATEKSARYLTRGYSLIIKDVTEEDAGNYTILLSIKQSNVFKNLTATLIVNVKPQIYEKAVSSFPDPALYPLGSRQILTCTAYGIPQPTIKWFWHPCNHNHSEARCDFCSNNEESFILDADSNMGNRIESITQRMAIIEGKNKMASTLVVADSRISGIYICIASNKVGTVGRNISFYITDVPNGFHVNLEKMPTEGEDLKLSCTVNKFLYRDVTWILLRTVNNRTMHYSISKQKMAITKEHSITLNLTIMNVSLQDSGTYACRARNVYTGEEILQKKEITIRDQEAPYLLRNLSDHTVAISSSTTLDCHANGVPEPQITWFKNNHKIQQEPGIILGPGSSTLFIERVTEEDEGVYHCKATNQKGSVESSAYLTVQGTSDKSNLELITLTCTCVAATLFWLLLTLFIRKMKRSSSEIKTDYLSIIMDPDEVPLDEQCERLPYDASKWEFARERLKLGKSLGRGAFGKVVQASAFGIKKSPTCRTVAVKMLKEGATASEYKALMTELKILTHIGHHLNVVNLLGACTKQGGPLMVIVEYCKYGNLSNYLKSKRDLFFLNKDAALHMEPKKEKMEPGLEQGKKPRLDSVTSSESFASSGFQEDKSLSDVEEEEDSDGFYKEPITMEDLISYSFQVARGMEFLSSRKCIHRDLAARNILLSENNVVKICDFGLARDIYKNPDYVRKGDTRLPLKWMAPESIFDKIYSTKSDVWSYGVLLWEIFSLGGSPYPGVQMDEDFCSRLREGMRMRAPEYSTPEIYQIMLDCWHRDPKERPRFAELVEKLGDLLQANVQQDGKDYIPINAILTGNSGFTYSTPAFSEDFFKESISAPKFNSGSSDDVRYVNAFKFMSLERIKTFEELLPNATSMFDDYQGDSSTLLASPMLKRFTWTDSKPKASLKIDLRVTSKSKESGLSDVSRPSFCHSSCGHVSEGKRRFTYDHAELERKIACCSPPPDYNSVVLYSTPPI

[10] = target: T3, Protein kinase C iota type (Homo sapiens) (UniProt P41743); assay: Selectivity interaction (SelectScreen profiling (Invitrogen)) EUB0000607a PRKCI; settings: at 2 µM
T3 sequence (whole entry): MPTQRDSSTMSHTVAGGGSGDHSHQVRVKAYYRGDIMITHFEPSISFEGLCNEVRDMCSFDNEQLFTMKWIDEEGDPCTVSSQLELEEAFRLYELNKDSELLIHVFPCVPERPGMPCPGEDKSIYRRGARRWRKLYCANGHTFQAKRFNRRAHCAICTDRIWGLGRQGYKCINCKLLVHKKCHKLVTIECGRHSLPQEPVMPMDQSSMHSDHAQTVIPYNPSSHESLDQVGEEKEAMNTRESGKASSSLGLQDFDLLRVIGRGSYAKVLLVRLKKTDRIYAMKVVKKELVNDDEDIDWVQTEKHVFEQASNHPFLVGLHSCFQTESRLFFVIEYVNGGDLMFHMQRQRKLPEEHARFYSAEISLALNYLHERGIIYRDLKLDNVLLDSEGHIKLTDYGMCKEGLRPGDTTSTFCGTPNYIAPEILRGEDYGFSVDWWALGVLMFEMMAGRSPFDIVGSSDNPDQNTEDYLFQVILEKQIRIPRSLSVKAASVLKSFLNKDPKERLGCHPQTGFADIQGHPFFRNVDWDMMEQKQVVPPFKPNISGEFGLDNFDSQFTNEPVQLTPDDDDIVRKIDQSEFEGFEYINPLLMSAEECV

[11] = system: Phosphatidylinositol 4,5-bisphosphate 3-kinase catalytic subunit alpha isoform (Homo sapiens), P42336 [I800L]; settings: at 10 µM
Phosphatidylinositol 4,5-bisphosphate 3-kinase catalytic subunit alpha isoform (Homo sapiens), P42336 [I800L], sequence (P42336 whole entry I800L, canonical isoform): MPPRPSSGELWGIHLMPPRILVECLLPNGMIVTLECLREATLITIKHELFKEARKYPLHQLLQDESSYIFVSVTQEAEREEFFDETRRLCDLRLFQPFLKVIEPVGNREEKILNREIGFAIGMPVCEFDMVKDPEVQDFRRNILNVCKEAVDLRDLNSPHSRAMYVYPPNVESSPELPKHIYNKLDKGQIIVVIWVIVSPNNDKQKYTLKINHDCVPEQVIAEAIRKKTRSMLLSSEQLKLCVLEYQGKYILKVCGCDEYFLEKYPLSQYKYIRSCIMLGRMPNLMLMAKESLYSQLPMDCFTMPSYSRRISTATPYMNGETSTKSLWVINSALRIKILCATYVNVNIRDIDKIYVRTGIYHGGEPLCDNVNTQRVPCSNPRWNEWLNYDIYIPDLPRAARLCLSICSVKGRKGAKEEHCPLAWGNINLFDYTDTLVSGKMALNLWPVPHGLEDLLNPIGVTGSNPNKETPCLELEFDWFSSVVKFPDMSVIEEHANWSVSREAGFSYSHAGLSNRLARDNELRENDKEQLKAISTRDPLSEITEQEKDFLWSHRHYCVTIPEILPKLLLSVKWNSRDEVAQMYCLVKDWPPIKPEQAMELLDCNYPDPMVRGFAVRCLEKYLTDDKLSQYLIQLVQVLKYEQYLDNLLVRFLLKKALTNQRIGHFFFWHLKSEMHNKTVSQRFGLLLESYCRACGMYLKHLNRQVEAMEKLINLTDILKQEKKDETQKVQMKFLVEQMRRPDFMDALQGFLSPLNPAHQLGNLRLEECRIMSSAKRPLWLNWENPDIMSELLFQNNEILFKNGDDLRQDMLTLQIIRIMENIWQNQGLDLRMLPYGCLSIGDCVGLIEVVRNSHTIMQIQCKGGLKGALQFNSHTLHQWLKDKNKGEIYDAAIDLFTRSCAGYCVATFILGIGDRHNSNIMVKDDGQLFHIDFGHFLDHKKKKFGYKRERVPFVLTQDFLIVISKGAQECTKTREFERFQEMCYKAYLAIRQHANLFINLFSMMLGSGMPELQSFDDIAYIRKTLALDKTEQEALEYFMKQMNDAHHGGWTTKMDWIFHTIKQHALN

[12] = target: Serine/threonine-protein kinase WNK1 (Homo sapiens) (UniProt Q9H4A3); assay: Selectivity interaction (KinomeScan (DiscoverX)) EUB0000666a WNK1; settings: at 10 µM
Serine/threonine-protein kinase WNK1 (Homo sapiens), sequence (Q9H4A3 whole entry, looked up): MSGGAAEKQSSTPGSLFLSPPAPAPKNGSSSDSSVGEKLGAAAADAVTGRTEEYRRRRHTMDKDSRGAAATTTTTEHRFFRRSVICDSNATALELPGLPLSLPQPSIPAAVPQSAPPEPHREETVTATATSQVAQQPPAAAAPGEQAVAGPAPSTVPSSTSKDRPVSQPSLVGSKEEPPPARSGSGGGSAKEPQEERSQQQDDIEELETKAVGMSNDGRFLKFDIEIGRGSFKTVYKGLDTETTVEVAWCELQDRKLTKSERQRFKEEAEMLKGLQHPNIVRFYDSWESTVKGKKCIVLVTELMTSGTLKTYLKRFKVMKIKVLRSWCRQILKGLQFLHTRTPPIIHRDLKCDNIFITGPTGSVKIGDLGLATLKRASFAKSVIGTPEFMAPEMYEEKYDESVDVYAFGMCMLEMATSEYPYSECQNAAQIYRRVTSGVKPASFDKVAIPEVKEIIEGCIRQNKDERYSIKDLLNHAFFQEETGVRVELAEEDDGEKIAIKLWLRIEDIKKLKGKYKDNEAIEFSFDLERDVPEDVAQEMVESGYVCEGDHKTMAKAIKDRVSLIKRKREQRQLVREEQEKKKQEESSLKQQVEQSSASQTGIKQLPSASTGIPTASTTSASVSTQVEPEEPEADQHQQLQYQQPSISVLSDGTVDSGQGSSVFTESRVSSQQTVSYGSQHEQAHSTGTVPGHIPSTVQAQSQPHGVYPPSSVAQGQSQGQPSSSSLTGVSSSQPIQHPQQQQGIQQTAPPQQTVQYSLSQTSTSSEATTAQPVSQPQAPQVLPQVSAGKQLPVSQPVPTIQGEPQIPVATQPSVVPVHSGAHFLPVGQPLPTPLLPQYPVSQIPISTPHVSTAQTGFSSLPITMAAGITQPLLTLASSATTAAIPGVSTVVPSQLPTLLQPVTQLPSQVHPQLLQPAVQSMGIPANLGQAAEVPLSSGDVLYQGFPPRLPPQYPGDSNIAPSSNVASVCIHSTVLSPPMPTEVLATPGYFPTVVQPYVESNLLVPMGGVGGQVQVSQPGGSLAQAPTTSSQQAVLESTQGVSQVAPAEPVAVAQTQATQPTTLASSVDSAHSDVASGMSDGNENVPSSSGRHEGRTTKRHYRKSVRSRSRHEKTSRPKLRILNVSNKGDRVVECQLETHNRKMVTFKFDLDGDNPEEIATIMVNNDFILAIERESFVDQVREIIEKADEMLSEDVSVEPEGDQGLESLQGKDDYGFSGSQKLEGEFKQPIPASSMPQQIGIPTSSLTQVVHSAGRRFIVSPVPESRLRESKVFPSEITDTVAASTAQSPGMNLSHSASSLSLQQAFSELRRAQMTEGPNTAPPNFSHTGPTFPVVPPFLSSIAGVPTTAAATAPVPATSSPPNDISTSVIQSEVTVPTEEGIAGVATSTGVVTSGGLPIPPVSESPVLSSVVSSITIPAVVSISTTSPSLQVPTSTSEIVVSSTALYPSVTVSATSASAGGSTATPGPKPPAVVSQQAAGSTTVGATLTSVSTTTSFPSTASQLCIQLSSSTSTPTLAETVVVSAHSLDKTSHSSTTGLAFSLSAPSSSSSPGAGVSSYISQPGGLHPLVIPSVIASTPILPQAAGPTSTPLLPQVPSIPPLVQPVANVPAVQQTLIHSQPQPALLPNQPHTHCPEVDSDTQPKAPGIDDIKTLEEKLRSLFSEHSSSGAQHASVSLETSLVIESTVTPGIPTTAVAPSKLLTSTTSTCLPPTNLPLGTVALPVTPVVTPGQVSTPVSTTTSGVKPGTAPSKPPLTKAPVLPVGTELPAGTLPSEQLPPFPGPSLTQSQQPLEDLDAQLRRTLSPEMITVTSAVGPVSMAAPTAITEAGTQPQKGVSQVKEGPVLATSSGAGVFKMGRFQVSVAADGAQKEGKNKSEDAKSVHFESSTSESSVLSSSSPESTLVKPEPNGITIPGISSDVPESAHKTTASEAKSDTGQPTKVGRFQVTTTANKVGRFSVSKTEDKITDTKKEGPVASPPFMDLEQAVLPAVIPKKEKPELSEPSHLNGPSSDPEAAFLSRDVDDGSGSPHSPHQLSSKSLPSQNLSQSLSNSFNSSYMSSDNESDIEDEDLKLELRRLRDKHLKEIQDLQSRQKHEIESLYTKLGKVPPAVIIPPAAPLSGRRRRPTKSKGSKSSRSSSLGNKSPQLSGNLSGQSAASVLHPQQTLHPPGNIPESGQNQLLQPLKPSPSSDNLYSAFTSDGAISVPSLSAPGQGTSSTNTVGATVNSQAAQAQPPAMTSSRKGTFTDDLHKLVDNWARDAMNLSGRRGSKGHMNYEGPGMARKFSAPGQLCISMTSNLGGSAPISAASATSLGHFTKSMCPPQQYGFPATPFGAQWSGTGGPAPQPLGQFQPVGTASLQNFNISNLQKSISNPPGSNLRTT

Question: For `Cc1cc([C@@H](C)Nc2ccccc2C(=O)O)c2nc(N3CCOCC3)cc(=O)n2c1` [AZD-6482], which % of control [1] is on record?
Answer: 89%

Question: For `CCc1cc(Nc2nccc(-c3c(-c4ccc(OC)c(C(=O)Nc5c(F)cccc5F)c4)nc4ccccn34)n2)c(OC)cc1N1CCC(N2CCN(S(C)(=O)=O)CC2)CC1`, which IC50 [2] is on record?
Answer: > 10 µM

Question: `Cc1cnc(Nc2ccc(F)cc2Cl)nc1-c1c[nH]c(C(=O)N[C@H](CO)c2cccc(Cl)c2)c1` was tested. Which % of inhibition [3] did it give?
Answer: 0%

Question: With `CC[C@@H]1[C@H](F)C(=O)N[C@@H]1COc1nccc2cc(C(N)=O)c(OC)cc12` [ZIMLOVISERTIB] as the compound, how does the % of inhibition [4] read?
Answer: -0.1%

Question: `CCN(CC)CCCCNc1ncc2cc(-c3cc(OC)cc(OC)c3)c(NC(=O)NC(C)(C)C)nc2n1` was tested. Which % of control [5] did it give?
Answer: 100%

Question: Which % of control [6] does the source give for `Nc1cnc(N2CCc3cc(S(=O)(=O)Nc4c(F)cc(Cl)cc4F)cc(N4CCCC4=O)c32)nc1` [TP-020n] here?
Answer: 86%

Question: What about the % of control [7] of the same compound?
Answer: 53%

Question: With `C=CC(=O)Nc1cccc(C(=O)Nc2ccc(Nc3cc(-c4[nH]c(SC)nc4C)ccn3)cc2)c1` as the compound, how does the % of control ([8]; at 1 µM) read?
Answer: 95%

Question: And the % of control ([8]; at 5 µM)?
Answer: 72%

Question: `C=CC(=O)Nc1cc(-n2c(=O)ccc3cnc4ccc(-c5ccc(NS(C)(=O)=O)cc5)cc4c32)ccc1C` was tested. Which % of control ([9]; at 1 µM) did it give?
Answer: 100%

Question: And the % of control ([9]; at 10 µM)?
Answer: 100%

Question: Which results are given for `CNC(=O)Nc1ccc(-c2nc(N3CC4CCC(C3)O4)c3cnn(C4CCC5(CC4)OCCO5)c3n2)cc1`?
Answer: % of inhibition [10]: 6%; % of control [11]: 5%

Question: With `O=C(NOC[C@H](O)CO)c1ccc(F)c(F)c1Nc1ccc(I)cc1F` as the compound, how does the % of control [12] read?
Answer: 92%

Source: ChEMBL document CHEMBL5465560, “Selectivity Literature for EUbOPEN Chemogenomic Library” (2024)
